Results: ChEMBL document CHEMBL3091435, “Protein-Ligand Interactions: Thermodynamic Effects Associated with Increasing the Length of an Alkyl Chain” (ACS Med Chem Lett, 2013)
Square brackets hold non-standard residues; d marks the D form. Peptide text beside a SMILES is read from it. pY = N[C@@H](Cc1ccc(OP(=O)(O)O)cc1)C(=O)O; Ahp(2) = CCCCC[C@H](N)C(=O)O; Nle = CCCC[C@H](N)C(=O)O; Nva = CCC[C@H](N)C(=O)O; Abu = CC[C@H](N)C(=O)O

Molecular target: Growth factor receptor-bound protein 2 (Homo sapiens) (UniProt P62993)
Assay: Binding affinity to Grb2 SH2 domain (53 to 163) (unknown origin) expressed in Escherichia coli SG13009 by ITC analysis

Growth factor receptor-bound protein 2 (Homo sapiens), sequence (P62993 whole entry, looked up, the tested form may be a part): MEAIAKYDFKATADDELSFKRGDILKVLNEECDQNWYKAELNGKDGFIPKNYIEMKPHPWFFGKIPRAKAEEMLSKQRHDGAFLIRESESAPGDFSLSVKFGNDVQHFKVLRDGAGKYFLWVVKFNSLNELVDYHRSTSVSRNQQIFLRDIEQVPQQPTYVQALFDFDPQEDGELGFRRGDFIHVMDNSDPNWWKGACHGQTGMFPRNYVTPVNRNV

| Structure (SMILES) | Ka |
| --- | --- |
| C/C=C\[C@H](NC(=O)[C@H](Cc1ccc(OP(=O)(O)O)cc1)NC(C)=O)C(=O)N[C@@H](CC(N)=O)C(N)=O | 6.1 ×10⁵ /M |
| CC(=O)N[C@@H](Cc1ccc(OP(=O)(O)O)cc1)C(=O)N[C@@H](C)C(=O)N[C@@H](CC(N)=O)C(N)=O (Ac-[pY]-Ala-Asn-NH2) | 2.2 ×10⁵ /M |
| CC[C@H](NC(=O)[C@H](Cc1ccc(OP(=O)(O)O)cc1)NC(C)=O)C(=O)N[C@@H](CC(N)=O)C(N)=O (Ac-[pY]-[Abu]-Asn-NH2) | 8.6 ×10⁵ /M |
| CCCCC[C@H](NC(=O)[C@H](Cc1ccc(OP(=O)(O)O)cc1)NC(C)=O)C(=O)N[C@@H](CC(N)=O)C(N)=O (Ac-[pY]-[Ahp(2)]-Asn-NH2) | 7.8 ×10⁵ /M |
| CCCC[C@H](NC(=O)[C@H](Cc1ccc(OP(=O)(O)O)cc1)NC(C)=O)C(=O)N[C@@H](CC(N)=O)C(N)=O (Ac-[pY]-[Nle]-Asn-NH2) | 8.4 ×10⁵ /M |
| CCC[C@H](NC(=O)[C@H](Cc1ccc(OP(=O)(O)O)cc1)NC(C)=O)C(=O)N[C@@H](CC(N)=O)C(N)=O (Ac-[pY]-[Nva]-Asn-NH2) | 7.6 ×10⁵ /M |
